Data published in patent publication US20230250096A1, “SUBSTITUTED PHENYL-1H-PYRROLO[2,3-c] PYRIDINE DERIVATIVES” (Janssen Pharmaceutica NV, priority 2021, published 2023).

Key:
[1] = target: T1, menin/MLL (terbium chelate-labeled menin, FITC-MBM1 peptide) (Homo sapiens, UniProt O00255, T541A); test: Menin/MLL homogenous time-resolved fluorescence (HTRF) assay; type: binding; conditions: 30 min incubation
T1 construct: Menin (a.a 1-610-6xhis tag, 2.3 mg/mL in 20 mM Hepes)
T1 sequence (O00255 with tags, fused parts or gaps T541A): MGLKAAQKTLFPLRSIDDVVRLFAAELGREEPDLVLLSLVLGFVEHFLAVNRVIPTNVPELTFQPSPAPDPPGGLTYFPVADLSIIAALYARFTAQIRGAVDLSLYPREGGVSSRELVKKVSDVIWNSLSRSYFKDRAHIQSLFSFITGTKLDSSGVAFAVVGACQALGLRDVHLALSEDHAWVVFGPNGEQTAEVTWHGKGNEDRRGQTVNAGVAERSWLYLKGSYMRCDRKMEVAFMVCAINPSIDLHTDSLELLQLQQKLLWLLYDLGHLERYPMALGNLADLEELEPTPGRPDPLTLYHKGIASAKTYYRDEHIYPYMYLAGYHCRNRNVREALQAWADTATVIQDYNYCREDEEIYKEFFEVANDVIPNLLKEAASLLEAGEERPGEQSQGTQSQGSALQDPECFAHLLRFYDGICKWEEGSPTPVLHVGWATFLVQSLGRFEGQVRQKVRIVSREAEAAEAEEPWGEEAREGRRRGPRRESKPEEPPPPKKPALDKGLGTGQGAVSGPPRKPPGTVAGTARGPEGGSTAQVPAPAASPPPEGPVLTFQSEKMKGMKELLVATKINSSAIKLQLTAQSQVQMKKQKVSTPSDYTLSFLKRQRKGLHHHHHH
In short: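 Competition binding read by time-resolved FRET (FITC 520 nm over terbium 490 nm) after compound meets labeled menin 1-610-His […] for 30 min, then FITC-MBM1 (75 nM) for 15 min, ambient temperature, 0.5% DMSO. Eleven-point four-fold dilutions, usually starting at 10 μM, fitted to four-parameter curves for IC50.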

MEIS1 mRNA expression = MEIS1 mRNA expression assay (Quantigene Singleplex) in MOLM14 cells; type: cell-based, human; conditions: 48 hours incubation
In short: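 Read-out: MEIS1 transcript counts, background-subtracted and divided by RPL28, expressed as fold change over DMSO-treated cells, then dose-response modelled for IC50. MOLM14 cells (3,750/well) received graded compound for 48 h before lysis and QuantiGene hybridization at 55 °C.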

IC50 [1]	IC50 (MEIS1 mRNA expression; Homo sapiens, MOLM-14, 48 h)	IC50 (MEIS1 mRNA expression)	SMILES
2.77 nM	> 1000 nM		CC(=O)N1CCC(CN2CC[C@H](Cc3cn(-c4ccc(F)cc4[S@]4(=O)=NCCC4)c4cncc(C)c34)C2)CC1 (single isomer, unassigned) [Compound 224b]
0.053 nM	77 nM		CC(=O)N1CCC([C@@H](C)N2CC[C@@H](Cc3cn(-c4ccc(F)cc4[S@](=N)(=O)C(C)C)c4cncc(C)c34)C2)CC1 (single isomer, unassigned) [Compound 230a]
5.45 nM	> 1000 nM		CC(=O)N1CCC([C@H](C)N2CC[C@@H](Cc3cn(-c4ccc(F)cc4[S@](=N)(=O)C(C)C)c4cncc(C)c34)C2)CC1 (single isomer, unassigned) [Compound 230b]
0.311 nM	52 nM		CC(=O)N1CCC([C@@H](C)N2CC[C@@H](Cc3cn(-c4ccc(F)cc4[S@@](=N)(=O)C(C)C)c4cncc(C)c34)C2)CC1 (single isomer, unassigned) [Compound 231a]
6.94 nM	> 1000 nM		CC(=O)N1CCC([C@H](C)N2CC[C@@H](Cc3cn(-c4ccc(F)cc4[S@@](=N)(=O)C(C)C)c4cncc(C)c34)C2)CC1 (single isomer, unassigned) [Compound 231b]
0.624 nM	~448 nM		CC(=O)N1CCC([C@@H](C)N2CC[C@H](Cc3cn(-c4ccc(F)cc4[S@](=N)(=O)C(C)C)c4cncc(C)c34)C2)CC1 (single isomer, unassigned) [Compound 232a]
4.04 nM	> 1000 nM		CC(=O)N1CCC([C@H](C)N2CC[C@H](Cc3cn(-c4ccc(F)cc4[S@](=N)(=O)C(C)C)c4cncc(C)c34)C2)CC1 (single isomer, unassigned) [Compound 232b]
0.171 nM	247 nM		CC(=O)N1CCC([C@@H](C)N2CC[C@H](Cc3cn(-c4ccc(F)cc4[S@@](=N)(=O)C(C)C)c4cncc(C)c34)C2)CC1 (single isomer, unassigned) [Compound 233a]
2.24 nM	> 1000 nM		CC(=O)N1CCC([C@H](C)N2CC[C@H](Cc3cn(-c4ccc(F)cc4[S@@](=N)(=O)C(C)C)c4cncc(C)c34)C2)CC1 (single isomer, unassigned) [Compound 233b]
0.407 nM	291 nM		Cc1cncc2c1c(C[C@@H]1CCN([C@@H](CN(C)C)C3CCOCC3)C1)cn2-c1ccc(F)cc1C(=O)N(C)C(C)C (single isomer, unassigned) [Compound 240a]
0.151 nM	38 nM		Cc1cncc2c1c(C[C@@H]1CCN([C@H](CN(C)C)C3CCOCC3)C1)cn2-c1ccc(F)cc1C(=O)N(C)C(C)C (single isomer, unassigned) [Compound 240b]
0.057 nM		16 nM	CCC(C1CCN(C(C)=O)CC1)N1CC[C@@H](Cc2cn(-c3ccc(F)cc3C(=O)N(C)C(C)C)c3cncc(C)c23)C1 (single isomer, unassigned) [Compound 246]
0.179 nM		116 nM	CCC(C1CCN(C(C)=O)CC1)N1CC[C@@H](Cc2cn(-c3ccc(F)cc3C(=O)N(C)C(C)C)c3cncc(C)c23)C1 (single isomer, unassigned) [Compound 247]
0.341 nM	69 nM		COCC[C@H](C1CCOCC1)N1CC[C@@H](Cc2cn(-c3ccc(F)cc3C(=O)N(C)C(C)C)c3cncc(C)c23)C1 (single isomer, unassigned) [Compound 252a]
0.25 nM	315 nM		COCC[C@@H](C1CCOCC1)N1CC[C@@H](Cc2cn(-c3ccc(F)cc3C(=O)N(C)C(C)C)c3cncc(C)c23)C1 (single isomer, unassigned) [Compound 252b]
1.47 nM	~540 nM		Cc1cncc2c1c(C[C@@H]1CCN([C@H](CCO)C3CCOCC3)C1)cn2-c1ccc(F)cc1C(=O)N(C)C(C)C (single isomer, unassigned) [Compound 253a]
1.73 nM	> 1000 nM		Cc1cncc2c1c(C[C@@H]1CCN([C@@H](CCO)C3CCOCC3)C1)cn2-c1ccc(F)cc1C(=O)N(C)C(C)C (single isomer, unassigned) [Compound 253b]
0.562 nM	~586 nM		CC(=O)N1CCC(N2CC(Cc3cn(-c4ccc(F)cc4C(=O)N(C)C(C)C)c4cncc(C)c34)C2)C[C@H]1C (single isomer, unassigned) [Compound 292b]
0.459 nM	148 nM		CC(=O)N1CCC(N2CC(Cc3cn(-c4ccc(F)cc4C(=O)N(C)C(C)C)c4cncc(C)c34)C2)C[C@@H]1C (single isomer, unassigned) [Compound 293a]

IC50 [1]	IC50 (MEIS1 mRNA expression; Homo sapiens, MOLM-14, 48 h)	IC50 (MEIS1 mRNA expression)	SMILES
0.152 nM		259 nM	CC(=O)N1CCC(N2CC(Cc3cn(-c4ccc(F)cc4C(=O)N(C)C(C)C)c4cncc(C)c34)C2)C[C@@H]1C (single isomer, unassigned) [Compound 293b]
0.111 nM	> 1000 nM		Cc1cncc2c1c(CC1CN([C@H]3CCN4C(=O)CCC4C3)C1)cn2-c1ccc(F)cc1C(=O)N(C)C(C)C (single isomer, unassigned) [Compound 309b]
0.189 nM	24 nM		CC(=O)N1CCC(CN2CC[C@@H](Cc3cn(-c4ccc(F)cc4C(=O)N(C[C@@H](C)O)C(C)C)c4cncc(C)c34)C2)CC1 (single isomer, unassigned) [Compound 320a]
0.104 nM	62 nM		CC(=O)N1CCC(CN2CC[C@@H](Cc3cn(-c4ccc(F)cc4C(=O)N(C[C@H](C)O)C(C)C)c4cncc(C)c34)C2)CC1 (single isomer, unassigned) [Compound 320b]
0.04 nM	12 nM		Cc1cncc2c1c(C[C@@H]1CCN(C[C@H]3CCNC(=O)CC3)C1)cn2-c1ccc(F)cc1C(=O)N1CCC2CC21 (single isomer, unassigned) [Compound 351a]
0.255 nM	182 nM		Cc1cncc2c1c(C[C@@H]1CCN(C[C@@H]3CCNC(=O)CC3)C1)cn2-c1ccc(F)cc1C(=O)N1CCC2CC21 (single isomer, unassigned) [Compound 351b]
0.149 nM	184 nM		Cc1cncc2c1c(C[C@@H]1CCN(CC3CCOCC3)C1)cn2-c1ccc(F)cc1C(=O)N1CCC[C@]1(C)CO (single isomer, unassigned) [Compound 362a]
0.228 nM		359 nM	Cc1cncc2c1c(C[C@@H]1CCN(CC3CCOCC3)C1)cn2-c1ccc(F)cc1C(=O)N1CCCC1C(C)O (single isomer, unassigned) [Compound 363a]
0.093 nM		~174 nM	Cc1cncc2c1c(C[C@@H]1CCN(CC3CCOCC3)C1)cn2-c1ccc(F)cc1C(=O)N1CCCC1C(C)O (single isomer, unassigned) [Compound 363b]
0.098 nM	225 nM		Cc1cncc2c1c(C[C@@H]1CCN(CC3CCOCC3)C1)cn2-c1ccc(F)cc1C(=O)N1CC[C@@H](O)C1(C)C (single isomer, unassigned) [Compound 364a]
0.292 nM	~670 nM		Cc1cncc2c1c(C[C@@H]1CCN(CC3CCOCC3)C1)cn2-c1ccc(F)cc1C(=O)N1CC[C@H](O)C1(C)C (single isomer, unassigned) [Compound 364b]
0.102 nM	35 nM		Cc1cncc2c1c(C[C@@H]1CCN(CC3CCOCC3)C1)cn2-c1ccc(F)cc1C(=O)N(C[C@@H](C)O)C(C)C (single isomer, unassigned) [Compound 365a]
0.067 nM	~319 nM		Cc1cncc2c1c(CC1CCN(C(CCC3OCCO3)C(C)C)C1)cn2-c1ccc(F)cc1C(=O)N(C)C(C)C (single isomer, unassigned) [Compound 366]
0.201 nM	> 1000 nM		Cc1cncc2c1c(C[C@@H]1CCN([C@H](CCC3OCCO3)C(C)C)C1)cn2-c1ccc(F)cc1C(=O)N(C)C(C)C (single isomer, unassigned) [Compound 367]
0.376 nM		> 1000 nM	Cc1cncc2c1c(C=C1CCN(CC3CCOCC3)C1)cn2-c1ccc(F)cc1C(=O)N(C)C(C)C (single isomer, unassigned) [Compound 523a]
0.124 nM		62 nM	Cc1cncc2c1c(C=C1CCN(CC3CCOCC3)C1)cn2-c1ccc(F)cc1C(=O)N(C)C(C)C (single isomer, unassigned) [Compound 523b]
19 nM		2560 nM	Cc1cncc2c1c(C=C1CCN(C)C1)cn2-c1ccc(F)cc1C(=O)N(C)C(C)C (single isomer, unassigned) [Compound 524a]
8.62 nM	2120 nM		Cc1cncc2c1c(C=C1CCN(C)C1)cn2-c1ccc(F)cc1C(=O)N(C)C(C)C (single isomer, unassigned) [Compound 524b]
